Where “and” joins values, the source holds several entries; their conditions need not be identical. Equal values may be shown once. Blank lines part the entries; values can stand above or below the compound they belong to.
Tests used:
Angiotensin II Receptor = target: T1, Angiotensin II Receptor (Bos taurus, UniProt P25104); test: Receptor binding assay: competition of [^125 I](Sar^1,Ile^8)AngII binding to beef adrenal cortex microsomal membranes; conditions: 60 min, room temperature, pH 7.4
T1 construct: The brownish tissue forming the adrenal cortex is scraped off and finely minced with scissors before homogenization; tissue local slaughter house (Maxwell-Cohen); host or cells: beef adrenal cortex, microsomal membranes (100,000×g pellet)
T1 sequence (P25104 1-359): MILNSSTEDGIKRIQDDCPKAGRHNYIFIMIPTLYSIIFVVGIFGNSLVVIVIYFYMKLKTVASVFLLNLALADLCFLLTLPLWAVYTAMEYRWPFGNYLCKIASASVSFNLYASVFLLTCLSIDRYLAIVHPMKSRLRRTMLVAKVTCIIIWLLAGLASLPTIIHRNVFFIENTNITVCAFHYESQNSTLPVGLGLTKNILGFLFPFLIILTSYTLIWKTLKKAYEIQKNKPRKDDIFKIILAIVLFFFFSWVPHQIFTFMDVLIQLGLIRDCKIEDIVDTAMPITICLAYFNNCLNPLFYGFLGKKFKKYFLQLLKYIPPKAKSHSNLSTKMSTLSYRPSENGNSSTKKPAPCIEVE
Text: Beef adrenals are obtained from a local slaughter house (Maxwell-Cohen). [^125 […]. 2200 Ci/mmole, is purchased from Dupont (KEN@, Boston, Mass.). All unlabeled AngII analogs, Dimethylsulfoxide (DMSO), nucleotides, bovine serum albumin (BBA) are purchased from Sigma Chemical Co., St. Louis, MO U.S.A. Approximately sixteen (16) to twenty (20) beef adrenal glands are processed as follows: fresh adrenal glands received on crushed ice are cleaned of fatty tissues and the tough membranes encapsulating the glands are removed and discarded. The brownish tissue forming the adrenal cortex is scraped off and finely minced with scissors before homogenization care is taken to avoid contamination with medullary tissue during dissection. […] Unless otherwise indicated, all subsequent operations are done at […]. […] The homogenate is centrifuged first at low speed (3,000×g) for 10 min. […] This P2 pellet is discarded and the liquid phase is carefully decanted off in clean centrifuge tubes and recentrifuged at high speed (100,000×g) for 60 min. The translucent final pellet is harvested and combined in a small volume (20-50.0 ml) of […] Tris.HCl buffer, pH 7.2. A 100 ul aliquot is withdrawn and the protein content of the preparation is determined by the Lowry's method (Lowry, O. H., Rosebrough, N. P., Parr, A. L. and Randall, R. J., Protein measurement with Folin phenol reagent. J. Biol. Chem., […], 265-275, 1951). The pelleted membrane is reconstituted in 50.0 mM Tris.HCl buffer containing 0.1 mM of phenylmethylsulfonyl fluoride (PMSF) to give approximately a protein concentration of 2.5 mg per ml of tissue suspension. […] In competition studies, experimental compounds are diluted in dimethylsulfoxide (DMSO) and added in 20 ul to wells before the introduction of tissue membranes. This concentration of DMSO is found to have no negative effects on the binding of [^125 I] ([…] to the membranes. Assays are performed in triplicate. The wells are left undisturbed for 60 min. at room temperature. Following incubation, all wells are harvested at once with a Brandel® Harvester especially designed for a 96 well plate (Brandel® Biomedical Research & Development Labs. Inc., Gaithersburg, MD, U.S.A.). The filter discs are washed with 10×1.0 ml of cold 0.9% NaCl to remove unbound ligand. Presoaking the filter sheet in 0.1% polyethyleneimine in normal saline (PEI/Saline) greatly reduces the radioactivity retained by the filter blanks. This method is routinely used. The filters are removed from the filter grid and counted in a Parkard® Cobra Gamma Counter for 1 min. (Packard Instrument Co., Downers Grove, Ill, U.S.A.). The binding data are analyzed by the non-linear interactive "LUNDON-11" program (LUNDON SOFTWARE Inc., Cleveland, OH U.S.A.).

[1] = test system: Angiotensin II (AII) vasopressor response; test: AII Challenge: antagonism of the angiotensin II vasopressor response in conscious SHR; format: in vivo, Spontaneously hypertensive rats (Male okamoto-Aoki SHR); conditions: 15 mg/kg I.V.; for Average Change / Inhibition: n = 2; for Change / Control Before AII / Response After AII: per rat
Text: […] Conscious Male okamoto-Aoki SHR, 16-20 weeks old, weighing approximately 330 g are purchased from Charles River Labs (Wilmington, MA). Conscious rats are restrained in a supine position with elastic tape. The area at the base of the tail is locally anesthetized by subcutaneous infiltration with 2% procaine. […] The cannula is secured, heparinized (1,000 I.U./ml), sealed and the wound is closed. The animals are placed in plastic restraining cages in an upright position. The cannula is attached to a Statham P23Db pressure transducer, and pulsatile blood pressure is recorded to 10-15 minutes with a Gould Brush recorder. (Chan et al., (Drug Development Res., 18:75-94, 1989). […] Co., St. […] […] […] […] […] A compound is considered active if at 30 mg/kg i.v. it antagonized at least 50% of the response.

[2] = AII 0.05 mcg/kg IV, 30 min post dose
[3] = AII 0.05 mcg/kg IV, 60 min post dose
[4] = AII 0.05 mcg/kg IV, 90 min post dose
[5] = AII 0.05 mcg/kg IV, 120 min post dose
[6] = AII 0.05 mcg/kg IV, 180 min post dose
[7] = AII 0.1 mcg/kg IV, 30 min post dose
[8] = AII 0.1 mcg/kg IV, 60 min post dose
[9] = AII 0.1 mcg/kg IV, 90 min post dose
[10] = AII 0.1 mcg/kg IV, 120 min post dose
[11] = AII 0.1 mcg/kg IV, 180 min post dose

IC50 (Angiotensin II Receptor): 600 nM
SMILES: CCCCc1nc2ccc(C3CC(C(=O)O)=NO3)cc2c(=O)n1Cc1ccc(-c2ccccc2-c2nnn[nH]2)cc1 (stereo not drawn) [Example 28, 5-[2-butyl-3,4-dihydro-4-oxo-3-[[2'-(lH-tetrazol-5-yl)[1,1'-biphenyl]-4-yl]-methyl]-6-quinazolinyl]-4,5-dihydro-3-isoxazolecarboxylic acid]
Average Change [1, 2]: 10 mmhg
Inhibition [1, 2]: 75%
Change [1, 2]: 10 mmhg
Control Before AII [1, 2]: 185 mmhg and 167 mmhg
Response After AII [1, 2]: 195 mmhg and 177 mmhg
Average Change [1, 3]: 2.5 mmhg
Inhibition [1, 3]: 94%
Change [1, 3]: 5 mmhg and 0 mmhg
Control Before AII [1, 3]: 170 mmhg and 165 mmhg
Response After AII [1, 3]: 175 mmhg and 165 mmhg
Average Change [1, 4]: 10 mmhg
Inhibition [1, 4]: 75%
Change [1, 4]: 10 mmhg
Control Before AII [1, 4]: 185 mmhg
Response After AII [1, 4]: 195 mmhg
Average Change [1, 5]: 16 mmhg
Inhibition [1, 5]: 60%
Change [1, 5]: 22 mmhg and 10 mmhg
Control Before AII [1, 5]: 163 mmhg and 165 mmhg
Response After AII [1, 5]: 185 mmhg and 175 mmhg
Average Change [1, 6]: 15.5 mmhg
Inhibition [1, 6]: 61%
Change [1, 6]: 16 mmhg and 15 mmhg
Control Before AII [1, 6]: 170 mmhg
Response After AII [1, 6]: 186 mmhg and 185 mmhg
Average Change [1, 7]: 4.5 mmhg
Inhibition [1, 7]: 91%
Change [1, 7]: 9 mmhg and 0 mmhg
Control Before AII [1, 7]: 190 mmhg and 165 mmhg
Response After AII [1, 7]: 199 mmhg and 165 mmhg
Average Change [1, 8]: 14 mmhg
Inhibition [1, 8]: 73%
Change [1, 8]: 15 mmhg and 13 mmhg
Control Before AII [1, 8]: 175 mmhg and 157 mmhg
Response After AII [1, 8]: 190 mmhg and 170 mmhg
Average Change [1, 9]: 10 mmhg
Inhibition [1, 9]: 81%
Change [1, 9]: 10 mmhg
Control Before AII [1, 9]: 185 mmhg and 175 mmhg
Response After AII [1, 9]: 195 mmhg and 185 mmhg
Average Change [1, 10]: 20 mmhg
Inhibition [1, 10]: 62%
Change [1, 10]: 20 mmhg
Control Before AII [1, 10]: 180 mmhg and 165 mmhg
Response After AII [1, 10]: 200 mmhg and 185 mmhg
Average Change [1, 11]: 24.5 mmhg
Inhibition [1, 11]: 53%
Change [1, 11]: 24 mmhg and 25 mmhg
Control Before AII [1, 11]: 175 mmhg and 160 mmhg
Response After AII [1, 11]: 199 mmhg and 185 mmhg

IC50 (Angiotensin II Receptor): 200 nM
SMILES: CCCCc1nc2ccc(C3(C)CC(C(=O)OCC)=NO3)cc2c(=O)n1Cc1ccc(-c2ccccc2-c2nnn[nH]2)cc1 (stereo not drawn) [Example 30]
Average Change [1, 2]: 10 mmhg
Inhibition [1, 2]: 78%
Change [1, 2]: 15 mmhg and 5 mmhg
Control Before AII [1, 2]: 175 mmhg and 215 mmhg
Response After AII [1, 2]: 190 mmhg and 220 mmhg
Average Change [1, 3]: 9 mmhg
Inhibition [1, 3]: 80%
Change [1, 3]: 0 mmhg and 18 mmhg
Control Before AII [1, 3]: 190 mmhg and 207 mmhg
Response After AII [1, 3]: 190 mmhg and 225 mmhg
Average Change [1, 4]: 20 mmhg
Inhibition [1, 4]: 57%
Change [1, 4]: 20 mmhg
Control Before AII [1, 4]: 170 mmhg and 210 mmhg
Response After AII [1, 4]: 190 mmhg and 230 mmhg
Average Change [1, 5]: 35 mmhg
Inhibition [1, 5]: 24%
Change [1, 5]: 40 mmhg and 30 mmhg
Control Before AII [1, 5]: 165 mmhg and 200 mmhg
Response After AII [1, 5]: 205 mmhg and 230 mmhg
Average Change [1, 6]: 5 mmhg
Inhibition [1, 6]: 89%
Change [1, 6]: 5 mmhg
Control Before AII [1, 6]: 200 mmhg and 240 mmhg
Response After AII [1, 6]: 205 mmhg and 245 mmhg
Average Change [1, 7]: 17 mmhg
Inhibition [1, 7]: 58%
Change [1, 7]: 14 mmhg and 20 mmhg
Control Before AII [1, 7]: 170 mmhg and 210 mmhg
Response After AII [1, 7]: 184 mmhg and 230 mmhg
Average Change [1, 8]: 20 mmhg
Inhibition [1, 8]: 50%
Change [1, 8]: 15 mmhg and 25 mmhg
Control Before AII [1, 8]: 185 mmhg and 200 mmhg
Response After AII [1, 8]: 200 mmhg and 225 mmhg
Average Change [1, 9]: 32.5 mmhg
Inhibition [1, 9]: 19%
Change [1, 9]: 35 mmhg and 30 mmhg
Control Before AII [1, 9]: 165 mmhg and 205 mmhg
Response After AII [1, 9]: 200 mmhg and 235 mmhg
Average Change [1, 10]: 29 mmhg
Inhibition [1, 10]: 28%
Change [1, 10]: 25 mmhg and 33 mmhg
Control Before AII [1, 10]: 175 mmhg and 200 mmhg
Response After AII [1, 10]: 200 mmhg and 233 mmhg
Average Change [1, 11]: 15 mmhg
Inhibition [1, 11]: 63%
Change [1, 11]: 25 mmhg and 5 mmhg
Control Before AII [1, 11]: 190 mmhg and 240 mmhg
Response After AII [1, 11]: 215 mmhg and 245 mmhg
